This experiment relates to high-fat diet mouse model. As to the kind of experiment: Therapeutic effect on hyperlipidemia and hypercholesterolemia in high-fat diet mouse model (blood cholesterol and triglycerides). It is filed as in vivo. The settings on record: high-fat diet female ICR mice, oral once a day for 12 weeks; complex extracts 100 mg/kg/day, Lovastatin 20 mg/kg/day. The method, then:
64 six-week-old female ICR mice were purchased from SLC Co. and acclimated for one week under breeding conditions of a temperature range of 22±1° C., a humidity range of 41±1%, and a 12-hour light/12-hour dark cycle. During this period, the mice were fed a normal diet. Then, the mice were randomly divided into 16 and 48 individuals. To adapt the mice to feed, the 16 individuals (a normal diet-fed group) were fed a normal diet (CA.170481, Teklad Co.) and the 48 individuals (a high-fat diet-fed group) were fed a high-fat diet (D12451, Research Diets Co.) containing 45 kcal % fat under the same breeding conditions as above for one week.
Specifically, eight mice were selected from the normal diet-fed group and assigned to a normal diet group. 24 mice were selected from the high-fat diet-fed group, eight of which were assigned to a high-fat diet group, a high-fat diet+complex extracts administration group, and a high-fat diet+Lovastatin administration group, respectively. Each experimental group was orally administered distilled water or the Artemisiae capillaris Herba and Citrus unshiu Peel complex extracts of Examples 1-3 containing the highest content of scoparone once a day for 12 weeks. In addition, a comparison group was orally administered Lovastatin (Hanmi Pharm. Co., Ltd), which is used to treat hyperlipidemia and hypercholesterolemia, once a day for 12 weeks. In this case, the complex extracts and Lovastatin were each suspended in distilled water and administered orally. In addition, the normal group was fed a normal diet and other experimental groups were fed a high-fat diet for 12 weeks.
In the experimental groups of Experimental Example <2-1>, changes in the contents of triglycerides and cholesterol were confirmed.
Specifically, each experimental group of Experimental Example <2-1> was orally administered samples for 12 weeks. On the last day of the experiment, all animals were bled under ether inhalation anesthesia, and 1 mL of the collected blood was centrifuged for 10 minutes at 3,000 rpm to isolate plasma. The contents of total cholesterol, triglycerides, and low density lipoprotein cholesterol (LDL) in the isolated plasma were measured using an Analyst III kit (Hemagen Diagnositics Co.) according to a manufacturer's procedure, and the content of high density lipoprotein cholesterol (HDL) was measured using an AU400 kit (Olympus Co.) according to a manufacturer's procedure.

Molecules are shown by their SMILES.

Take `CC[C@H](C)C(=O)O[C@H]1C[C@@H](C)C=C2C=C[C@H](C)[C@H](CC[C@@H]3C[C@@H](O)CC(=O)O3)[C@H]21` [Lovastatin]: the “Serum content HDL” value was determined as 62.44 ± 1.96 mg/dL, the “Serum content LDL” value amounted to 14.91 ± 0.46 mg/dL, the “Serum content Total cholesterol” value is 83.26 ± 7.40 mg/dL and the “Serum content Triglycerides” value came out at 81.43 ± 5.24 mg/dL.

Source of the values: patent publication US11285188B2, “Composition for preventing or treating metabolic diseases containing artemisiae capillaris herba and citrus unshiu peel complex extracts as active ingredients” (Medicare Pharmaceuticals Inc., priority 2018, dated 2022).
